In one test the target is T1, AXL (Homo sapiens, UniProt P30530).
T1 sequence (P30530 26-894): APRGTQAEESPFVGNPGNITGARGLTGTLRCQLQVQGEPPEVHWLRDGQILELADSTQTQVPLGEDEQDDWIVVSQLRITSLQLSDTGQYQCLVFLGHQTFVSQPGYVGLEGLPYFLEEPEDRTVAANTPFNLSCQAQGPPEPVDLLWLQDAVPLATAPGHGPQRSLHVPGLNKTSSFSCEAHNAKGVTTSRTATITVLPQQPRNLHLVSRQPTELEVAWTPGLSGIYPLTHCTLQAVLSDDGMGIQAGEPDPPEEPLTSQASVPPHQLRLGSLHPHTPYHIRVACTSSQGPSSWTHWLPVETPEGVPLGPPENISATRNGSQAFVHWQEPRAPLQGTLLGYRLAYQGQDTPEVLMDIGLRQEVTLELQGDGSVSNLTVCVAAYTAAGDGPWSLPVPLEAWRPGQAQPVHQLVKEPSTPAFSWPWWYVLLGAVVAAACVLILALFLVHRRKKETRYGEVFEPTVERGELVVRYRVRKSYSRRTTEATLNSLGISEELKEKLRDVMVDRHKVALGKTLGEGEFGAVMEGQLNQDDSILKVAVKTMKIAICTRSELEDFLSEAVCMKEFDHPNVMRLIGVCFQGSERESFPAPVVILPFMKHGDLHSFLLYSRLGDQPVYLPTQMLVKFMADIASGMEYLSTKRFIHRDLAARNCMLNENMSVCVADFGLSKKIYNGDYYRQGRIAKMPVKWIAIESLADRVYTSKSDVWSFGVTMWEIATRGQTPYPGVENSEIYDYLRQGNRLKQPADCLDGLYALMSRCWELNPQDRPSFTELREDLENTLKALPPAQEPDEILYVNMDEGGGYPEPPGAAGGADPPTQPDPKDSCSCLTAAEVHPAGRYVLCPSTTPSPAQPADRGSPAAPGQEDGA
As to the kind of experiment: TR-FRET kinase activity assay, AXL. The class given is biochemical. Conditions: ATP at Km, 60 minutes. The gist of the method: (§1)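 Inhibition is measured as loss of phospho-peptide formation: kinase, fluorescent tyrosine peptide and compound are combined, ATP is added at Km, and the reaction proceeds 60 min at RT in pH 7.5 HEPES buffer. An EDTA stop and Eu-labelled phospho-specific antibody allow TR-FRET detection for IC50 fitting.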
A general note: TR-FRET usually uses a lanthanide donor and a delayed reading to cut background.

The target in the next test is T2, TYRO3 (Homo sapiens, UniProt Q06418).
T2 sequence (Q06418 41-890): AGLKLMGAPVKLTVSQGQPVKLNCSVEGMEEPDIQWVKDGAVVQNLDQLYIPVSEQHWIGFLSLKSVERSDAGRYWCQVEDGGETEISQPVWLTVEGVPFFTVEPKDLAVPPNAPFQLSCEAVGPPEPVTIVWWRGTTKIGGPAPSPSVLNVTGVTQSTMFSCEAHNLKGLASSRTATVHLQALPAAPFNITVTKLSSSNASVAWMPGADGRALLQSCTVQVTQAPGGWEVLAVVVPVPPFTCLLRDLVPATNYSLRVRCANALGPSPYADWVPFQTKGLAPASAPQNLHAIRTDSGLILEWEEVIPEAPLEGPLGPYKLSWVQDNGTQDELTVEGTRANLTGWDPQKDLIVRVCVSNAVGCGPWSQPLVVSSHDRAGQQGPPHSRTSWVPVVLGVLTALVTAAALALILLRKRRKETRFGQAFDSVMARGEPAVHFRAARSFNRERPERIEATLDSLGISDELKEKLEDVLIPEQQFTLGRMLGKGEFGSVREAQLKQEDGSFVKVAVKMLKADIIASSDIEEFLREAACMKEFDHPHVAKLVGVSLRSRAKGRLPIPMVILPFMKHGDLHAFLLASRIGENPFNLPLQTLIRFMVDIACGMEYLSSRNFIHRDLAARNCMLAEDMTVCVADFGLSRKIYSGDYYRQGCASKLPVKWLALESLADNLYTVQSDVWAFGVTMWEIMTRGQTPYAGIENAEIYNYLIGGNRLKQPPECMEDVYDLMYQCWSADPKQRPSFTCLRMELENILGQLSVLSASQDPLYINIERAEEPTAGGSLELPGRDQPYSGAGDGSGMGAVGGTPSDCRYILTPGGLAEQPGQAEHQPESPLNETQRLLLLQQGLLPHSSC
As to the kind of experiment: TR-FRET kinase activity assay, TYRO3. The format is biochemical. Conditions: ATP at Km, 60 minutes. The gist of the method:
as §1

Regarding `COCC(C)Nc1ncc2c(-c3ccc(C(C)N4CCOCC4)cc3)cc(C3CCC(O)CC3)n2n1` (mixture of isomers) [Compound 180], the IC50 (usually the midpoint of a concentration-inhibition curve) is 100 to 1000 nM at AXL and at most 100 nM against TYRO3.

Consider `CC(Nc1ncc2c(-c3ccc(CN4CCN(C)CC4)cc3)cc([C@H]3CC[C@H](O)CC3)n2n1)C(F)F` (mixture of isomers) [Compound 148], for which the IC50 against AXL and at TYRO3 was at most 100 nM each time.

Turning to `CCCCC[C@H](C)Nc1ncc2c(-c3ccc(S(=O)(=O)N4CCOCC4)cc3)cc([C@H]3CC[C@H](O)CC3)n2n1` [Compound 102, (1S,4r)-4-(2-((S)-heptan-2-ylamino)-5-(4-(morpholinosulfonyl)phenyl)pyrrolo[2,1-f][1,2,4]triazin-7-yl)cyclohexanol], the half-inhibitory concentration (IC50) is 100 to 1000 nM on AXL and at most 100 nM against TYRO3.

Turning to `COC[C@H](C)Nc1ncc2c(-c3ccc(C(=O)N4CCN(C)CC4)cc3)cc([C@H]3CC[C@H](O)CC3)n2n1` [Compound 144], the IC50 on AXL and at TYRO3 was at most 100 nM throughout.

Regarding `CC(CC#N)Nc1ncc2c(-c3ccc(CN4CCN(C)CC4)cc3)cc(C3CCC(O)CC3)n2n1` (stereo not drawn) [Compound 145], the IC50 against AXL and on TYRO3 was at most 100 nM throughout.

`COC[C@H](C)Nc1ncc2c(-c3ccnc(C)c3)cc([C@H]3CC[C@H](O)CC3)n2n1` [Compound 146]: the values for the IC50 on AXL and on TYRO3 were 100 to 1000 nM and at most 100 nM, respectively.

With `CNC(=O)c1ccc(-c2cc([C@H]3CC[C@H](O)CC3)n3nc(N[C@@H](C)COC)ncc23)cn1` [Compound 147], the figures for the IC50 against AXL and against TYRO3 were 100 to 1000 nM and at most 100 nM, respectively.

Turning to `COCC1(Nc2ncc3c(-c4ccc(CN5CCN(C)CC5)cc4)cc(C4CCC(O)CC4)n3n2)CC1` (stereo not drawn) [Compound 149], the figures for the IC50 on AXL and on TYRO3 were 100 to 1000 nM and at most 100 nM, respectively.

As for `COC[C@H](C)Nc1ncc2c(-c3ccc(CN4CCN(C(C)=O)CC4)cc3)cc([C@H]3CC[C@H](O)CC3)n2n1` [Compound 150], the IC50 on AXL and at TYRO3 was at most 100 nM each time.

Take `COC[C@H](C)Nc1ncc2c(-c3cnn(C4CCOCC4)c3)cc([C@H]3CC[C@H](O)CC3)n2n1` [Compound 151]: the IC50 against AXL was 100 to 1000 nM; on TYRO3, at most 100 nM.

Regarding `COC[C@H](C)Nc1ncc2c(-c3cnn(C)c3)cc([C@H]3CC[C@H](O)CC3)n2n1` [Compound 152], the half-inhibitory concentration (IC50) against AXL and against TYRO3 was at most 100 nM throughout.

As to `COC[C@H](C)Nc1ncc2c(-c3cnn(CCN4CCOCC4)c3)cc([C@H]3CC[C@H](O)CC3)n2n1` [Compound 153], the IC50 was 100 to 1000 nM against AXL and at most 100 nM against TYRO3.

With `COC[C@H](C)Nc1ncc2c(-c3ccc(CN4CCN(c5nccc(C)n5)CC4)cc3)cc([C@H]3CC[C@H](O)CC3)n2n1` [Compound 154, (trans)-4-(2-(((S)-1-methoxypropan-2-yl)amino)-5-(4-((4-(4-methylpyrimidin-2-yl)piperazin-1-yl)methyl)phenyl)pyrrolo[2,1-f][1,2,4]triazin-7-yl)cyclohexanol], the IC50 on AXL and at TYRO3 was at most 100 nM in each case.

In the case of `COC[C@H](C)Nc1ncc2c(-c3ccc(CN4CCN(C)CC4)cc3)cc([C@H]3CC[C@@H](O)CC3)n2n1` [Compound 155], the IC50 at AXL and at TYRO3 was at most 100 nM throughout.

For `COC[C@H](C)Nc1ncc2c(-c3ccc([C@@H](C)N4CCOCC4)cc3)cc([C@H]3CC[C@H](O)CC3)n2n1` [Compound 156], the IC50 at AXL and against TYRO3 was at most 100 nM throughout.

As for `COC[C@H](C)Nc1ncc2c(-c3ccc([C@H](C)N4CCOCC4)cc3)cc([C@H]3CC[C@H](O)CC3)n2n1` [Compound 157], the IC50 on AXL and against TYRO3 was at most 100 nM in each case.

On to `COCC(C)Nc1ncc2c(-c3cccc(C(C)N4CCCC4)c3)cc(C3CCC(O)CC3)n2n1` (stereo not drawn) [Compound 158], for which the IC50 against AXL and against TYRO3 was at most 100 nM in each case.

`CCOC(=O)Cn1cc(-c2cc([C@H]3CC[C@H](O)CC3)n3nc(N[C@@H](C)COC)ncc23)cn1` [Compound 159]: the IC50 on AXL and on TYRO3 was at most 100 nM throughout.

Turning to `COC[C@H](C)Nc1ncc2c(-c3cnn(CC(=O)O)c3)cc([C@H]3CC[C@H](O)CC3)n2n1` [Compound 160], the IC50 at AXL and at TYRO3 was at most 100 nM each time.

With `COCCC(C)Nc1ncc2c(-c3ccc(CN4CCCC4)cc3)cc(C3CCC(O)CC3)n2n1` (stereo not drawn) [Compound 161], the half-inhibitory concentration (IC50) on AXL is 100 to 1000 nM; at TYRO3, at most 100 nM.

For the compound `COC[C@H](C)Nc1ncc2c(-c3cnn(CC(=O)N4CCOCC4)c3)cc([C@H]3CC[C@H](O)CC3)n2n1` [Compound 162], the IC50 against AXL and at TYRO3 was at most 100 nM throughout.

In the case of `COC[C@H](C)Nc1ncc2c(-c3ccc(CN4CCOCC4)cc3)cc([C@H]3CC[C@@H](O)CC3)n2n1` [Compound 163, (cis)-4-(2-(((S)-1-methoxypropan-2-yl)amino)-5-(4-(morpholinomethyl)phenyl)pyrrolo[2,1-f][1,2,4]triazin-7-yl)cyclohexanol], the IC50 against AXL and on TYRO3 was at most 100 nM in each case.

For `COCC(C)Nc1ncc2c(-c3ccc(C(C)N4CCCC4)cc3)cc(C3CCC(O)CC3)n2n1` (stereo not drawn) [Compound 164], the 50% inhibitory concentration (IC50) against AXL and on TYRO3 was at most 100 nM in each case.

Turning to `COC[C@H](C)Nc1ncc2c(-c3ccc([C@H](C)N4CCCC4)cc3)cc([C@H]3CC[C@H](O)CC3)n2n1` [Compound 165], the IC50 at AXL and on TYRO3 was at most 100 nM throughout.

Regarding `COCC(C)Nc1ncc2c(-c3ccc(C(C)N4CCCC4)cc3)cc(C3CCC(O)CC3)n2n1` (stereo not drawn) [Compound 166], the IC50 against AXL and at TYRO3 was at most 100 nM throughout.

On to `COC[C@H](C)Nc1ncc2c(-c3cnn(CC(C)C)c3)cc([C@H]3CC[C@H](O)CC3)n2n1` [Compound 167], for which the IC50 on AXL and on TYRO3 was at most 100 nM in each case.

Turning to `COC[C@H](C)Nc1ncc2c(-c3cnccc3C)cc([C@H]3CC[C@H](O)CC3)n2n1` [Compound 168], the figures for the IC50 against AXL and at TYRO3 were 1000 to 10000 nM and 100 to 1000 nM, respectively.

With `COC[C@H](C)Nc1ncc2c(-c3ccc(C#N)c(F)c3)cc([C@H]3CC[C@H](O)CC3)n2n1` [Compound 169], the IC50 on AXL and against TYRO3 was at most 100 nM in each case.

For the compound `COC[C@H](C)Nc1ncc2c(C3=CC4CCC(C3)N4)cc([C@H]3CC[C@H](O)CC3)n2n1` (stereo partly drawn) [Compound 170], the half-inhibitory concentration (IC50) against AXL and at TYRO3 was at most 100 nM in each case.

With `COC[C@H](C)Nc1ncc2c(-c3ccc(C4(C(=O)N5CCOCC5)CC4)cc3)cc([C@H]3CC[C@H](O)CC3)n2n1` [Compound 171], the IC50 on AXL and against TYRO3 was at most 100 nM each time.

As for `COCC(C)Nc1ncc2c(-c3ccc(C4(C(=O)N5CCS(=O)(=O)CC5)CC4)cc3)cc(C3CCC(O)CC3)n2n1` (stereo not drawn) [Compound 172], the IC50 at AXL and at TYRO3 was at most 100 nM each time.

As to `COC[C@H](C)Nc1ncc2c(-c3ccc(C4(C(=O)O)CC4)cc3)cc([C@H]3CC[C@H](O)CC3)n2n1` [Compound 173], the IC50 on AXL and against TYRO3 was at most 100 nM in each case.

In the case of `COC[C@H](C)Nc1ncc2c(-c3cnn(CC(=O)NS(C)(=O)=O)c3)cc([C@H]3CC[C@H](O)CC3)n2n1` [Compound 174], the values for the IC50 at AXL and against TYRO3 were 100 to 1000 nM and at most 100 nM, respectively.

The record behind these values is patent US11040981B2, “Pyrrolotriazine compounds and methods of inhibiting TAM kinases” (Syros Pharmaceuticals, Inc., priority 2017, dated 2021).
